The text below walks through data of publication PMC5698723, “Oxetane Grafts Installed Site‐Selectively on Native Disulfides to Enhance Protein Stability and Activity In Vivo” (Angewandte Chemie (International Ed. in English), 2017).

Data set [1] can be described thus: Stability of stapled cyclic peptides in GSH solution. Format: physicochemical. The settings on record: around 1 mM peptide in H2O, 1 mM GSH, 37 °C, 48 h, HPLC read-out (212 nm). The protocol: 6. Stability test of stapled cyclic peptides
A 100 µL aliquot of stapled peptide (around 1 mM) in H2O was treated with 5.3 µL of a 20 mM GSH solution (to 1 mM) and the resulting mixture vortexed for 30 s and then shaken at 37 °C. After 48 h, an aliquot of each reaction mixture was analysed by HPLC [YMC-Pack Pro C18 column (5 µ, 250 mm × 10 mm), isocratic: acetonitrile+0.1% TFA /water+0.1% TFA (73- […]
(§1) 27), 15 min, λ = 212nm, flow=3.5)]. […]
(YMC-Pack Pro C18 column (5 µ, 250 mm × 10 mm), isocratic: acetonitrile+0.1% TFA […]
(§2) /water+0.1% TFA (73-27), 15 min, λ = 212nm, flow=3.5)).

Data set [2] in a line: Stability of stapled cyclic peptides in human plasma. In kind it is in vitro ADME. To be noted: around 1 mM peptide in H2O (100 µL) + 1 µL reconstituted human plasma, 37 °C, 48 h, HPLC read-out (212 nm). The protocol:
6. Stability test of stapled cyclic peptides […]
as §1
A 100 µL aliquot of stapled peptide (around 1 mM) in H2O was treated with 1 µL of
reconstituted human plasma (Sigma-Aldrich) and the resulting mixture vortexed for 30 s and
then shaken at 37 °C. After 48 h, an aliquot of each reaction mixture was analysed by HPLC
(YMC-Pack Pro C18 column (5 µ, 250 mm × 10 mm), isocratic: acetonitrile+0.1% TFA
as §2

Take `C[C@H](N)C(=O)NCC(=O)N[C@H]1CSCC2(COC2)CSC[C@@H](C(=O)O)NC(=O)[C@H](CO)NC(=O)[C@H]([C@@H](C)O)NC(=O)[C@H](Cc2ccccc2)NC(=O)[C@H]([C@@H](C)O)NC(=O)[C@H](CCCCN)NC(=O)[C@H](Cc2c[nH]c3ccccc23)NC(=O)[C@H](Cc2ccccc2)NC(=O)[C@H](Cc2ccccc2)NC(=O)[C@H](CC(N)=O)NC(=O)[C@H](CCCCN)NC1=O` [compound 3]: the “stability in the presence of glutathione (GSH)” value in data set [1] is listed as “remain intact”. In addition, the “stability in human plasma” value in data set [2] is “remain intact”.
For `C[C@@H](O)[C@@H]1NC(=O)[C@H](CCCCN)NC(=O)[C@@H](Cc2c[nH]c3ccccc23)NC(=O)[C@H](Cc2ccccc2)NC(=O)[C@@H](NC(=O)[C@H](N)Cc2ccccc2)CSCC2(COC2)CSC[C@@H](C(=O)N[C@H](CO)[C@@H](C)O)NC1=O` [compound 5], the “stability in the presence of glutathione (GSH)” value in data set [1] is recorded as “remain intact”. Also, in data set [2], the “stability in human plasma” value is on record as “remain intact”.
